Measurements published in patent publication US6838436B1, “Inhibitors of proteasomal activity for stimulating bone growth” (Osteoscreen Inc., priority 1998, dated 2005).
Where two headings read alike, the source gives them in different places. Where a SMILES comes first, the peptide text is derived from it. [ ]: non-standard residue; d: D form. The star is where a group is joined. Nva = CCC[C@H](N)C(=O)O; Cbz = O=C(OCc1ccccc1)*; OtBu = CC(C)(C)O*

Legend:
[1] = biological target: T1, 20S thermophila proteasome (Methanosarcina thermophila, UniProt Q9P992); experiment: biochemical
T1 construct: purchased CalBiochem, San Diego, Calif
T1 sequence (Q9P992 10-210): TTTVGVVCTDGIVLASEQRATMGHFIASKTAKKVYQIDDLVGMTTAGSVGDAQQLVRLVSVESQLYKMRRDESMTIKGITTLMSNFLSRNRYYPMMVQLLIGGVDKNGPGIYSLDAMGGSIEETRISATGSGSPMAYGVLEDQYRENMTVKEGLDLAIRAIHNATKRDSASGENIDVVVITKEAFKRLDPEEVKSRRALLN
T1 sequence (Q59565 1-247 partner): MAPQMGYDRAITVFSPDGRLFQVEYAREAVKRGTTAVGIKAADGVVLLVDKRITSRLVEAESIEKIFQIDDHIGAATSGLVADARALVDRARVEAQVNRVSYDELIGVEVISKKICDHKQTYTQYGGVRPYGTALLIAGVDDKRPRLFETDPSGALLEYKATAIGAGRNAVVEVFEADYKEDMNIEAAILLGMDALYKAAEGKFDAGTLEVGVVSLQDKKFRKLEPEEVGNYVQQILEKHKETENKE
Protocol: The assay involves incubating the potential inhibitor with 20S thermophila proteasomes which, in purified form, are commercially available, with a fluorogenic peptide substrate. The presence of an inhibitor will reduce the amount of fluorescence generated by the action of the proteasome fraction on the fluorogenic peptide. This assay is described in further detail in Coux, O., et al., N Rev Biochem (1996) 65:801; Adams, J., et al., Cancer Res (1999) 59:2615; and Craiu, A., et al., J Biol Chem (1997) 272:13437. Further reports are set forth in Hilt, W., et al., Trans Biochem Sci (1996) 21:96; Peters, J., Trends Biochem Sci (1994) 19:377; Maupin-Furlow, J. A., et al., J Biol Chem (1995) 270:28617; and Jensen, T. J., et al., Cell (1995) 83:129. Fluorogenic substrates and purified proteasomes are available, for example, from CalBiochem, San Diego, Calif.
Purified 20S thermophila proteasomes and the fluorogenic peptide substrate Suc-Leu-Leu-Val-Tyr-AMC (SEQ ID NO:3) are available from CalBiochem, San Diego, Calif. Briefly, serial dilutions of the inhibitor to be tested were mixed with proteasome solution at a concentration of proteasome of 0.01 mg/ml. After 30 min incubation at 37° C., substrate solution at a final concentration of 25-30 μg/ml was added and the mixture incubated at 37° C. and then read at 15 min, 30 min, and 60 min in a Fluoroscan instrument. The percentage diminution in fluorescence in the presence as compared to the absence of inhibitor is then calculated.

mouse BMP2 promoter = experiment: High throughput screen (ABA assay): BMP2 promoter-luciferase reporter in 2T3-BMP-2-LUC osteoblast cells; format: cell-based; conditions: for EC50: read-out: Luciferase Activity (ED50-μM); for activity in the high through-put assay compared with simvastatin: Example 6
Excerpt: 1995, the entire contents of which are incorporated herein by reference. This assay is also described as a portion of a study of immortalized murine osteoblasts (derived from a mouse expressing a transgene composed of a BMP2 promoter driving expression of T-antigen) in Ghosh-Choudhery, N., et al., Endocrinology (1996) 137:331-39. In this study, the immortalized cells were stably transfected with a plasmid containing a luciferase reporter gene driven by a mouse BMP2 promoter (−2736/114 bp), and responded in a dose-dependent manner to recombinant human BMP2.
Briefly, the assay utilizes cells transformed permanently or transiently with constructs in which the promoter of a bone morphogenetic protein, specifically BMP2 or BMP4, is coupled to a reporter gene, typically luciferase. These transformed cells are then evaluated for the production of the reporter gene product; compounds that activate the BMP promoter will drive production of the reporter protein, which can be readily assayed. Many thousands of compounds have been subjected to this rapid screening technique, and only a very small percentage are able to elicit a level of expression of reporter gene 5-fold greater than that produced by vehicle. […] The active compounds (“BMP promoter-active compounds” or “active compounds”) are useful in promoting bone or cartilage growth, and thus in the treatment of vertebrates in need of bone or cartilage growth.
Thousands of compounds have been tested in the assay system set forth in U.S. Ser. No. 08/458,434, filed 2 Jun. 1995, and incorporated herein by reference. […] In this screen, the standard positive control was the compound 59-0008 (also denoted “OS8”), which is of the formula: [drawing 22]
In more detail, the 2T3-BMP-2-LUC cells, a stably transformed osteoblast cell line described in Ghosh-Choudhury et al. Endocrinology (1996) 137:331-39, referenced above, was employed. The cells were cultured using α-MEM, 10% FCS with 1% penicillin/streptomycin and 1% glutamine (“plating medium”), and were split 1:5 once per week. For the assay, the cells were resuspended in a plating medium containing 4% FCS, plated in microtiter plates at a concentration of 5×10^3 cells (in 50 μl)/well, and incubated for 24 hours at 37° C. in 5% CO2. To initiate the assay, 50 μl of the test compound or the control in DMSO was added at 2× concentration to each well, so that the final volume was 100 μl. The final serum concentration was 2% FCS, and the final DMSO concentration was 1%. Compound 59-0008 (10 μM) was used as a positive control.
The treated cells were incubated for 24 hours at 37° C. and 5% CO2. The medium was then removed, and the cells were rinsed three times with PBS. After removal of excess PBS, 25 μl of 1× cell culture lysing reagent (Promega #E153A) was added to each well and incubated for at least ten minutes. Optionally, the plates/samples could be frozen at this point. To each well was added 50 μl of luciferase substrate (Promega #E152A; 10 ml Promega luciferase assay buffer per 7 mg Promega luciferase assay substrate). Luminescence was measured on an automated 96-well luminometer, and was expressed as either picograms of luciferase activity per well or as picograms of luciferase activity per microgram of protein.
Accordingly, other tested compounds can be evaluated at various concentrations, and the results compared to the results obtained for 59-0008 at 10 μM (which value would be normalized to 100). Alternatively, the reactivity of a compound to be tested can be compared directly to a negative control containing no compound.

[2] = read-out: Proteasome Activity (ED50-μM)
[3] = read-out: % Proteasomal Activity

For CC(=O)N[C@@H](CSC(=O)[C@]1([C@@H](O)C(C)C)NC(=O)[C@H](C)[C@@H]1O)C(=O)O [Lactacystin, lactacystin], the EC50 [1] was 1.5 µM, the “response in the high throughput luciferase screen” value (“response” for short) (mouse BMP2 promoter) was “Positive responses” and the EC50 (mouse BMP2 promoter; Mus musculus, Osteoblast) was 1 µM.

For CCC[C@@H](C=O)NC(=O)[C@H](CC(C)C)NC(=O)[C@H](CC(C)C)NC(=O)OCc1ccccc1 [MG-115, N-carbobenzoyl-Leu-Leu-Nva-CHO] (Cbz-Leu-Leu-[Nva]-aldehyde), the EC50 [1, 2] was 1 µM, the “response” value (mouse BMP2 promoter) was “high activity” and the EC50 (mouse BMP2 promoter; Mus musculus, Osteoblast) was 2 µM.

In the case of simvastatin, the “response” value (mouse BMP2 promoter) is reported as “good response”, the Luciferase activity/well (mouse BMP2 promoter; dose 0.000625 μM) is reported as 0.07 and the Luciferase activity/well (mouse BMP2 promoter; dose 0.00125 μM) is reported as 0.07. The Luciferase activity/well (mouse BMP2 promoter; dose 0.0025 μM) was 0.065, the Luciferase activity/well (mouse BMP2 promoter; dose 0.005 μM) was 0.07 and the Luciferase activity/well (mouse BMP2 promoter; dose 0.01 μM) was 0.07. The Luciferase activity/well (mouse BMP2 promoter; dose 0.02 μM) was 0.07, the Luciferase activity/well (mouse BMP2 promoter; dose 0.04 μM) was 0.07 and the Luciferase activity/well (mouse BMP2 promoter; dose 0.08 μM) was 0.07. For the same molecule, the Luciferase activity/well (mouse BMP2 promoter; dose 0.16 μM) was 0.07, the Luciferase activity/well (mouse BMP2 promoter; dose 0.32 μM) was 0.07 and the Luciferase activity/well (mouse BMP2 promoter; dose 0.625 μM) was 0.09. For the same molecule, the Luciferase activity/well (mouse BMP2 promoter; dose 1.25 μM) was 0.11, the Luciferase activity/well (mouse BMP2 promoter; dose 2.5 μM) was 0.14 and the Luciferase activity/well (mouse BMP2 promoter; dose 5 μM) was 0.15. For the same molecule, the Luciferase activity/well (mouse BMP2 promoter; dose 10 μM) was 0.15 and the EC50 (mouse BMP2 promoter) was 0.2 µM.

For CC[C@H](C)[C@H](NC(=O)OCc1ccccc1)C(=O)N[C@@H](CCC(=O)OC(C)(C)C)C(=O)N[C@@H](C)C(=O)N[C@H](C=O)CC(C)C [PSI, N-carbobenzoyl-Ile-Glu-(OtBu)-Ala-Leu-CHO] (Cbz-IE(OtBu)AL-aldehyde), the EC50 [1] was 0.035 µM, the IC50 [1] was ~60 nM and the remaining activity at 0.002 µM [1, 3] was 100%. The remaining activity at 0.004 µM [1, 3] was 95%, the remaining activity at 0.008 µM [1, 3] was 94% and the remaining activity at 0.016 µM [1, 3] was 86%. It also gave a remaining activity at 0.032 µM [1, 3] of 76%, a remaining activity at 0.062 µM [1, 3] of 54% and a remaining activity at 0.125 µM [1, 3] of 30%. The remaining activity at 0.25 µM [1, 3] was 11%, the remaining activity at 0.5 µM [1, 3] was 6% and the remaining activity at 1 µM [1, 3] was 5%. The “activity in the high through-put assay compared with simvastatin” value (mouse BMP2 promoter) was “more active than simvastatin”, the EC50 (mouse BMP2 promoter; Mus musculus, Osteoblast) was 0.05 µM and the Luciferase activity/well (mouse BMP2 promoter; dose 0.000625 μM) was 0.07. It also gave a Luciferase activity/well (mouse BMP2 promoter; dose 0.00125 μM) of 0.08, a Luciferase activity/well (mouse BMP2 promoter; dose 0.0025 μM) of 0.07 and a Luciferase activity/well (mouse BMP2 promoter; dose 0.005 μM) of 0.08. It also gave a Luciferase activity/well (mouse BMP2 promoter; dose 0.01 μM) of 0.08, a Luciferase activity/well (mouse BMP2 promoter; dose 0.02 μM) of 0.09 and a Luciferase activity/well (mouse BMP2 promoter; dose 0.04 μM) of 0.12. For the same molecule, the Luciferase activity/well (mouse BMP2 promoter; dose 0.08 μM) was 0.18.

With CC[C@H](C)[C@H](NC(=O)[C@H]([C@@H](C)CC)N(C)C(C)=O)C(=O)N[C@H](C(=O)N[C@@H](CC(C)C)C(=O)[C@@]1(C)CO1)[C@@H](C)O [Epoxomicin] the IC50 [1] was ~60 nM, the “activity in the high through-put assay compared with simvastatin” value (mouse BMP2 promoter) was “more active than simvastatin” and the Luciferase activity/well (mouse BMP2 promoter; dose 0.000625 μM) was 0.07. The Luciferase activity/well (mouse BMP2 promoter; dose 0.00125 μM) was 0.07, the Luciferase activity/well (mouse BMP2 promoter; dose 0.0025 μM) was 0.08 and the Luciferase activity/well (mouse BMP2 promoter; dose 0.005 μM) was 0.10. It also gave a Luciferase activity/well (mouse BMP2 promoter; dose 0.01 μM) of 0.14, a Luciferase activity/well (mouse BMP2 promoter; dose 0.02 μM) of 0.17 and a Luciferase activity/well (mouse BMP2 promoter; dose 0.04 μM) of 0.20. For the same molecule, the Luciferase activity/well (mouse BMP2 promoter; dose 0.08 μM) was 0.21.

Work on CC(C)C[C@@H](C=O)NC(=O)[C@@H](CC(C)C)NC(=O)[C@H](CC(C)C)NC(=O)OCc1ccccc1 [MG-132, N-carbobenzoyl-Leu-Leu-Leu-CHO] (Cbz-Leu-[dL]-Leu-aldehyde) yielded a remaining activity at 0.002 µM [1, 3] of 101%, a remaining activity at 0.004 µM [1, 3] of 99% and a remaining activity at 0.008 µM [1, 3] of 101%. It also gave a remaining activity at 0.016 µM [1, 3] of 100%, a remaining activity at 0.032 µM [1, 3] of 98% and a remaining activity at 0.062 µM [1, 3] of 90%. For the same molecule, the remaining activity at 0.125 µM [1, 3] was 87%, the remaining activity at 0.25 µM [1, 3] was 73% and the remaining activity at 0.5 µM [1, 3] was 57%. The remaining activity at 1 µM [1, 3] was 44%, the remaining activity at 2 µM [1, 3] was 19% and the EC50 [1, 2] was 0.3 µM. The “response” value (mouse BMP2 promoter) was “high activity” and the EC50 (mouse BMP2 promoter; Mus musculus, Osteoblast) was 0.25 µM.
